Experimental data from patent US10385108B2, “Peptide analogs of alpha-melanocyte stimulating hormone” (Genzyme Corporation, priority 2008, dated 2019).
Where a SMILES comes first, the peptide text is derived from it. [ ]: non-standard residue; d: D form. The star is where a group is joined. X1 = CCCCCCCCCCCCCCCCCC(=O)NCCCCCCN*; d3Pal = N[C@H](Cc1cccnc1)C(=O)O; dNle = CCCC[C@@H](N)C(=O)O

Molecular target: MC1R (Homo sapiens, UniProt Q01726)
Assay: Competitive binding with 125I-NDP-MSH, HEK293 membrane preparations, MC1R;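 also: Read-out: receptor-bound radioligand retained by filtration and counted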
Settings: Ki MC1R, competition with 125I-NDP-MSH
Description: Binding analysis was done by Cerep laboratories (Paris, France) with coded samples.
The mixtures were filtered through 96-well GFC filters (Millipore, Billerica, Mass.), washed 3 times with binding buffer without BSA, dried and counted.
A competitive binding assay using a MCR panel including MCR 1, 3, 4, and 5 was performed.

Chain of MC1R (Q01726 whole entry): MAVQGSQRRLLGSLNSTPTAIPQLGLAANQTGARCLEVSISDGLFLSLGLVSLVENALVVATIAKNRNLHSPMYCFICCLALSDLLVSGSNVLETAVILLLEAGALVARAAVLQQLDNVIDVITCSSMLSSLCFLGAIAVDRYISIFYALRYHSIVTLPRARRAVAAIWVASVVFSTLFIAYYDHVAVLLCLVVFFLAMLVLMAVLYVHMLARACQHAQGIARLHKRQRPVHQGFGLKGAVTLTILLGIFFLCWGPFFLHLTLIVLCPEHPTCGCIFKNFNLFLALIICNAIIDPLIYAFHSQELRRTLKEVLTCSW

Ki | Structure (SMILES)
0.128 µM | CSCC[C@@H](NC(=O)[C@@H](CCC(=O)O)NC(=O)[C@@H](Cc1c[nH]cn1)NC(=O)[C@@H](Cc1ccccc1)NC(=O)[C@@H](CCCNC(=N)N)NC(=O)[C@@H](Cc1ccccc1)NC(=O)CNC(=O)[C@@H](CCCCN)NC(=O)[C@H]1CCCN1C(=O)[C@H](NC(C)=O)C(C)C)C(=O)N[C@H](CO)C(=O)N[C@H](Cc1ccc(O)cc1)C(=O)N[C@H](CO)C(N)=O [862-b, vpkGfrfhemsys] (Ac-[dV][dP][dK]G[dF][dR][dF][dH][dE][dM][dS][dY][dS]-NH2)
0.324 µM | CSCC[C@@H](NC(=O)[C@@H](CCC(=O)O)NC(=O)[C@@H](Cc1c[nH]cn1)NC(=O)[C@@H](Cc1ccc([N+](=O)[O-])cc1)NC(=O)[C@@H](CCCNC(=N)N)NC(=O)[C@@H](Cc1c[nH]c2ccccc12)NC(=O)CNC(=O)[C@@H](CCCCN)NC(=O)[C@H]1CCCN1C(=O)[C@H](NC(C)=O)C(C)C)C(=O)N[C@H](CO)C(=O)N[C@H](Cc1ccc(O)cc1)C(=O)N[C@H](CO)C(N)=O [compound 871, vpkGwr(4-Nitro-D-Phe)hemsys]
0.48 µM | CSCC[C@@H](NC(=O)[C@@H](CCC(=O)O)NC(=O)[C@@H](Cc1c[nH]cn1)NC(=O)[C@@H](Cc1cccnc1)NC(=O)[C@@H](CCCNC(=N)N)NC(=O)[C@@H](Cc1c[nH]c2ccccc12)NC(=O)CNC(=O)[C@@H](CCCCN)NC(=O)[C@H]1CCCN1C(=O)[C@H](NC(C)=O)C(C)C)C(=O)N[C@H](CO)C(=O)N[C@H](Cc1ccc(O)cc1)C(=O)N[C@H](CO)C(N)=O [compound 867, vpkGwr(3-pyridyl-D-Alanine)hemsys] (Ac-[dV][dP][dK]G[dW][dR][d3Pal][dH][dE][dM][dS][dY][dS]-NH2)
0.003 µM | CSCC[C@@H](NC(=O)[C@@H](CCC(=O)O)NC(=O)[C@@H](Cc1c[nH]cn1)NC(=O)[C@@H](Cc1ccccc1)NC(=O)[C@@H](CCCNC(=N)N)NC(=O)[C@@H](Cc1c[nH]c2ccccc12)NC(=O)CNC(=O)[C@@H](CCCN)NC(=O)[C@H]1CCCN1C(=O)[C@H](NC(C)=O)C(C)C)C(=O)N[C@H](CO)C(=O)N[C@H](Cc1ccc(O)cc1)C(=O)N[C@H](CO)C(N)=O [compound 857, vp(D-Ornithine)Gwrfhemsys]
0.018 µM | CCCC[C@@H](NC(=O)[C@H]1CCCN1C(=O)[C@H](NC(C)=O)C(C)C)C(=O)NCC(=O)N[C@H](Cc1c[nH]c2ccccc12)C(=O)N[C@H](CCCNC(=N)N)C(=O)N[C@H](Cc1ccccc1)C(=O)N[C@H](Cc1c[nH]cn1)C(=O)N[C@H](CCC(=O)O)C(=O)N[C@H](CCSC)C(=O)N[C@H](CO)C(=O)N[C@H](Cc1ccc(O)cc1)C(=O)N[C@H](CO)C(N)=O [compound 858, vp(D-Norleucine)Gwrfhemsys] (Ac-[dV][dP][dNle]G[dW][dR][dF][dH][dE][dM][dS][dY][dS]-NH2)
0.832 µM | CC(=O)N[C@@H](C(=O)N1CCC[C@@H]1C(=O)N[C@H](CCCCN)C(=O)NCC(=O)N[C@H](Cc1c[nH]c2ccccc12)C(=O)N[C@H](CCCNC(=N)N)C(=O)N[C@H](Cc1ccccc1)C(=O)N[C@H](Cc1c[nH]cn1)C(=O)N[C@H](CCC(=O)O)C(=O)N[C@H](CCCCN)C(=O)N[C@H](CO)C(=O)N[C@H](Cc1ccc(O)cc1)C(=O)N[C@H](CO)C(N)=O)C(C)C [compound 879, vpkGwrfheksys] (Ac-[dV][dP][dK]G[dW][dR][dF][dH][dE][dK][dS][dY][dS]-NH2)
0.0025 µM | CSCC[C@@H](NC(=O)[C@@H](C)NC(=O)[C@@H](Cc1c[nH]cn1)NC(=O)[C@@H](Cc1ccccc1)NC(=O)[C@@H](CCCNC(=N)N)NC(=O)[C@@H](Cc1c[nH]c2ccccc12)NC(=O)CNC(=O)[C@@H](CCCCN)NC(=O)[C@H]1CCCN1C(=O)[C@H](NC(C)=O)C(C)C)C(=O)N[C@H](CO)C(=O)N[C@H](Cc1ccc(O)cc1)C(=O)N[C@H](CO)C(N)=O [compound 808, vpkGwrfhamsys] (Ac-[dV][dP][dK]G[dW][dR][dF][dH][dA][dM][dS][dY][dS]-NH2)

Same assay, conditions: relative to the unmodified tetrapeptide

improvement of binding to MC1R by stearyl addition to the core tetrapeptide | Structure (SMILES)
> 250 fold | CCCCCCCCCCCCCCCCCC(=O)NCCCCCCNC(=O)[C@@H](Cc1c[nH]cn1)NC(=O)[C@H](Cc1ccccc1)NC(=O)[C@@H](CCCNC(=N)N)NC(=O)[C@@H](Cc1c[nH]c2ccccc12)NC(C)=O [compound 882, wrFh] (Ac-[dW][dR]F[dH]-X1)
